# Data published in ChEMBL document CHEMBL4627293, “Synthesis and in vitro activity of asymmetric indole-based bisamidine compounds against Gram-positive and Gram-negative pathogens” (2020).
# Assays:
# Format in all cases: functional
# Pseudomonas aeruginosa = experiment: Antimicrobial activity against Pseudomonas aeruginosa ATCC 27853
# Enterococcus faecalis [1] = experiment: Antimicrobial activity against Vancomycin-sensitive Enterococcus faecalis ATCC 29212
# Enterococcus faecalis [2] = experiment: Antimicrobial activity against Vancomycin-resistant Enterococcus faecalis ATCC 51299
# [3] = tested on: Acinetobacter calcoaceticus; experiment: Antimicrobial activity against Acinetobacter calcoaceticus ATCC 19606
# Enterococcus faecium = experiment: Antimicrobial activity against vancomycin-resistant Enterococcus faecium ATCC 700221
# Klebsiella pneumoniae [4] = experiment: Antimicrobial activity against ESBL-producing Klebsiella pneumoniae ATCC 700603
# Klebsiella pneumoniae [5] = experiment: Antimicrobial activity against NDM-1 producing Klebsiella pneumoniae ATCC BAA-2146
# Staphylococcus aureus [6] = experiment: Antimicrobial activity against methicillin- resistant Staphylococcus aureus ATCC 33591
# Providencia rettgeri = experiment: Antimicrobial activity against Providencia rettgeri ATCC 31052
# Proteus vulgaris = experiment: Antimicrobial activity against Proteus vulgaris ATCC 29905
# [7] = tested on: Staphylococcus epidermidis; experiment: Antimicrobial activity against methicillin-susceptible Staphylococcus epidermidis ATCC 12228
# Escherichia coli = experiment: Antimicrobial activity against Escherichia coli ATCC 25922
# Citrobacter freundii = experiment: Antimicrobial activity against Citrobacter freundii ATCC 43864
# Klebsiella pneumoniae [8] = experiment: Antimicrobial activity against Klebsiella pneumoniae 7
# Staphylococcus aureus [9] = experiment: Antimicrobial activity against methicillin-sensitive Staphylococcus aureus ATCC 29213
Structure (SMILES),MIC (Pseudomonas aeruginosa),MIC (Enterococcus faecalis [1]),MIC (Enterococcus faecalis [2]),MIC [3],MIC (Enterococcus faecium),MIC (Klebsiella pneumoniae [4]),MIC (Klebsiella pneumoniae [5]),MIC (Staphylococcus aureus [6]),MIC (Providencia rettgeri),MIC (Proteus vulgaris),MIC [7],MIC (Escherichia coli),MIC (Citrobacter freundii),MIC (Klebsiella pneumoniae [8]),MIC (Staphylococcus aureus [9])
CC(C)NC(=N)c1ccc2cc(-c3ccc(Oc4ccc(-c5cc6ccc(C(=N)NC(C)C)cc6[nH]5)c(C(F)(F)F)c4)cc3)[nH]c2c1,32 mg/L,2 mg/L,2 mg/L,64 mg/L,2 mg/L,16 mg/L,16 mg/L,2 mg/L,64 mg/L,16 mg/L,2 mg/L,16 mg/L,16 mg/L,16 mg/L,2 mg/L
CNC(=N)c1ccc2cc(-c3ccc(Oc4ccc(-c5cc6ccc(C(=N)NC)cc6[nH]5)c(Cl)c4)cc3)[nH]c2c1,128 mg/L,16 mg/L,16 mg/L,128 mg/L,8 mg/L,64 mg/L,64 mg/L,4 mg/L,128 mg/L,64 mg/L,2 mg/L,64 mg/L,64 mg/L,64 mg/L,4 mg/L
CC(C)NC(=N)c1ccc2cc(-c3ccc(Oc4ccc(-c5cc6ccc(C(=N)NC(C)C)cc6[nH]5)cn4)cc3)[nH]c2c1,32 mg/L,1 mg/L,1 mg/L,64 mg/L,0.25 mg/L,8 mg/L,16 mg/L,0.25 mg/L,16 mg/L,16 mg/L,0.25 mg/L,4 mg/L,8 mg/L,8 mg/L,0.25 mg/L
CC(C)NC(=N)c1ccc2cc(-c3ccc(Oc4ccc(-c5cc6ccc(C(=N)NC(C)C)cc6[nH]5)nc4)cc3)[nH]c2c1,64 mg/L,0.25 mg/L,0.5 mg/L,16 mg/L,0.25 mg/L,8 mg/L,8 mg/L,0.125 mg/L,4 mg/L,8 mg/L,0.125 mg/L,2 mg/L,4 mg/L,8 mg/L,0.25 mg/L
CN(C)C(=N)c1ccc2cc(-c3ccc(Oc4ccc(-c5cc6ccc(C(=N)N(C)C)cc6[nH]5)cn4)cc3)[nH]c2c1,64 mg/L,2 mg/L,2 mg/L,128 mg/L,1 mg/L,8 mg/L,8 mg/L,0.25 mg/L,8 mg/L,8 mg/L,0.25 mg/L,4 mg/L,4 mg/L,4 mg/L,0.5 mg/L
CC(C)NC(=N)c1ccc2cc(-c3ccc(Oc4ccc(-c5cc6ccc(C(=N)NC(C)C)cc6[nH]5)c(Cl)c4)cc3)[nH]c2c1,> 128 mg/L,16 mg/L,16 mg/L,> 128 mg/L,8 mg/L,> 128 mg/L,> 128 mg/L,8 mg/L,> 128 mg/L,> 128 mg/L,1 mg/L,128 mg/L,> 128 mg/L,> 128 mg/L,8 mg/L
CNC(=N)c1ccc2cc(-c3ccc(Oc4ccc(-c5cc6ccc(C(=N)NC)cc6[nH]5)c(C(F)(F)F)c4)cc3)[nH]c2c1,64 mg/L,0.5 mg/L,1 mg/L,32 mg/L,0.5 mg/L,16 mg/L,8 mg/L,0.5 mg/L,32 mg/L,16 mg/L,0.25 mg/L,4 mg/L,8 mg/L,8 mg/L,0.5 mg/L
CN(C)C(=N)c1ccc2cc(-c3ccc(Oc4ccc(-c5cc6ccc(C(=N)N(C)C)cc6[nH]5)c(Cl)c4)cc3)[nH]c2c1,> 128 mg/L,16 mg/L,16 mg/L,> 128 mg/L,16 mg/L,> 128 mg/L,128 mg/L,2 mg/L,> 128 mg/L,128 mg/L,2 mg/L,32 mg/L,64 mg/L,> 128 mg/L,8 mg/L
CN(C)C(=N)c1ccc2cc(-c3ccc(Oc4ccc(-c5cc6ccc(C(=N)N(C)C)cc6[nH]5)c(C(F)(F)F)c4)cc3)[nH]c2c1,> 128 mg/L,8 mg/L,8 mg/L,> 128 mg/L,8 mg/L,> 128 mg/L,> 128 mg/L,2 mg/L,> 128 mg/L,128 mg/L,2 mg/L,64 mg/L,64 mg/L,> 128 mg/L,2 mg/L
COc1cc(Oc2ccc(-c3cc4ccc(C(=N)NC(C)C)cc4[nH]3)cc2)ccc1-c1cc2ccc(C(=N)NC(C)C)cc2[nH]1,128 mg/L,0.25 mg/L,1 mg/L,> 128 mg/L,0.25 mg/L,64 mg/L,64 mg/L,0.25 mg/L,64 mg/L,64 mg/L,0.125 mg/L,16 mg/L,32 mg/L,64 mg/L,0.25 mg/L
CN[C@H](CC(C)C)C(=O)N[C@H]1C(=O)N[C@@H](CC(N)=O)C(=O)N[C@H]2C(=O)N[C@H]3C(=O)N[C@H](C(=O)N[C@H](C(=O)O)c4cc(O)cc(O)c4-c4cc3ccc4O)[C@H](O)c3ccc(c(Cl)c3)Oc3cc2cc(c3O[C@@H]2O[C@H](CO)[C@@H](O)[C@H](O)[C@H]2O[C@H]2C[C@](C)(N)[C@H](O)[C@H](C)O2)Oc2ccc(cc2Cl)[C@H]1O [VANCOMYCIN],,1 mg/L,,,,,,,,,0.5 mg/L,,,,
